Experimental data from PubChem BioAssay AID1963426 (Molecular Pharmacology Branch, DTP, NCI, 2024).

Test system: 186277-243-T-J2-PDC complex spheroid growth, % test/control
Test: Anticancer human tumor 186277-243-T-J2-PDC patient-derived colon adenocarcinoma cell line growth inhibition [Asc]
Details: for IC50: curve of first compound; for viability, T/C: stronger effect = lower value
Method: Multicellular complex tumor spheroid response to apoptosis pathway targeting inhibitors Alrizomadlin, Pelcitoclax, and Dasminapant in combination with a variety of drugs and investigational agents in selected tumor cell lines
The MDM2 inhibitor alrizomadlin, the Bcl-2/Bcl-xL inhibitor pelcitoclax, and the IAPs inhibitor dasminapant were evaluated both individually and in combination with standard of care and investigational anticancer small molecules within a complex spheroid model of solid tumors. . Complex spheroids include a stromal component modeled by human endothelial cells (HUVEC) and fibroblasts modeled by human mesenchymal stem cells (MSCs). The concentration ranges selected for each drug and investigational agent were based upon clinically achievable concentrations if the clinical Cmax of the agent was known.
Compounds. The drugs and investigational agents: alrizomadlin (APG-115; NSC831270), pelcitoclax (APG-1252; NSC835773), dasminapant (APG-1387;NSC834197), TAK-243 (NSC785004), copanlisib (NSC809693), olaparib (NSC753686), talazoparib (NSC767125), cobimetinib (NSC 768068), eltanexor (KPT-8602, NSC 794443), abemaciclib (NSC 768073), sotorasib (NSC818433), adagrasib (NSC 831453), MRTX-1133 (NSC 836407), Iadademestat (ORY1001, NSC 806812), and RMC-4630 (NSC839698), were obtained from the NCI Developmental Therapeutics Program Chemical Repository. The FDA-approved anticancer drug set is available from the Developmental Therapeutics Program at https://dtp.cancer.gov/organization/dscb/obtaining/available plates.htm. […] The stock solutions were prepared in dimethyl sulfoxide (DMSO, Sigma-Aldrich, St. Louis, MO, cat. D2650) at 800-fold the tested concentration and stored at -70 degrees C prior to their use. All drugs and investigational agents were tested over a range starting from a high concentration at or near the clinical Cmax and decreasing in half-log increments. If the clinical Cmax for an agent had not been determined, the highest concentration tested was 10 microM.
The patient-derived cancer (PDC) cell lines include five colon adenocarcinomas: 186277-243-T-J2-PDC, 616215-338-R-J1-PDC, 439559-082-T-J2-PDC, 463943-066-T-J2-PDC, and 519858-162-T-J1-PDC; three pancreatic carcinomas: 323965-272-R-J2-PDC, 521955-158-R6-J3-PDC, and 521955-158-R2-J5-PDC; two uterine sarcomas: 327498-152-R-J2-PDC and 993429-296-R-J1-PDC; two rhabdomyosarcomas: 755483-174-R-J1-PDC and 772245-204-R-J1-PDC; two soft tissue sarcomas: 126254-015-R-J1-PDC and 494315-158-R-J1-PDC; two malignant fibrous histiocytomas: 317291-083-R-J1-PDC and 596521-263-R-J1-PDC; two breast carcinomas: 171881-019-R-J1-PDC and 885512-296-R-J2-PDC; and one ovarian carcinoma: 6556581-035-R-J-PDC were obtained from the NCI PDMR, (https://pdmr.cancer.gov). The established cell lines HSSY-2 synovial sarcoma (RRID:CVCL 8719), SYO-1 synovial sarcoma (RRID:CVCL_7146), MPNST malignant peripheral neural sheath tumor were obtained from the Sloan Kettering Institute. The following established cell lines were purchased from the American Type Culture Collection (ATCC, Manassas, VA), Sor the received from the NCI repository:, PANC-1 pancreatic carcinoma (CRL-1469, RRID:CVCL_0480), OVCAR-5 ovarian carcinoma (RRID:CVCL_1628), OVCAR-8 ovarian carcinoma (RRID:CVCL_1629), , MCF-7 breast carcinoma (CRL-12584, RRID:CVCL_0031), MDA-MB-231 breast carcinoma (CRL-12532, RRID:CVCL_0062), NCI-H1876 small cell lung carcinoma (CRL-5902, RRID:CVCL_1503), NCI-H510A small cell lung carcinoma (HTB-184, RRID:CVCL_1565), NCI-H1417 (CRL-5869, RRID:CVCL_1469), and NCI-H196 small cell lung carcinoma (CRL-5823, RRID:CVCL_1509). Dr. Peter Houghton (Greehey Children's Cancer Research Institute, University of Texas Health Science Center, San Antonio, TX) provided Rh-18 rhabdomyosarcoma (RRID:CVCL_1659). Pooled donor human umbilical vein endothelial cells (HUVEC, Lonza, cat. CC-2519) and human mesenchymal stem cells (hMSC, Lonza, cat. PT-2501) were purchased from Lonza (Walkersville, MD).
Cell Culture. […]

[1] = second compound 0.03 µM, first compound 0.00316 µM
[2] = second compound 0.03 µM, first compound 0.01 µM
[3] = second compound 0.03 µM, first compound 0.0316 µM
[4] = second compound 0.03 µM, first compound 0.1 µM
[5] = second compound 0.0949 µM, first compound 0.00316 µM
[6] = second compound 0.0949 µM, first compound 0.01 µM
[7] = second compound 0.0949 µM, first compound 0.0316 µM
[8] = second compound 0.0949 µM, first compound 0.1 µM
[9] = second compound 0.3 µM, first compound 0.00316 µM
[10] = second compound 0.3 µM, first compound 0.01 µM
[11] = second compound 0.3 µM, first compound 0.0316 µM
[12] = second compound 0.3 µM, first compound 0.1 µM
[13] = second compound 0.949 µM, first compound 0.00316 µM
[14] = second compound 0.949 µM, first compound 0.01 µM
[15] = second compound 0.949 µM, first compound 0.0316 µM
[16] = second compound 0.949 µM, first compound 0.1 µM
[17] = second compound 3 µM, first compound 0.00316 µM
[18] = second compound 3 µM, first compound 0.01 µM
[19] = second compound 3 µM, first compound 0.0316 µM
[20] = second compound 3 µM, first compound 0.1 µM
[21] = second compound 0.03 µM, first compound 0.316 µM
[22] = second compound 0.03 µM, first compound 1 µM
[23] = second compound 0.0949 µM, first compound 0.316 µM
[24] = second compound 0.0949 µM, first compound 1 µM
[25] = second compound 0.3 µM, first compound 0.316 µM
[26] = second compound 0.3 µM, first compound 1 µM
[27] = second compound 0.949 µM, first compound 0.316 µM
[28] = second compound 0.949 µM, first compound 1 µM
[29] = second compound 3 µM, first compound 0.316 µM
[30] = second compound 3 µM, first compound 1 µM
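Note: spheroids exposed to agents for 7 days.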
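Throughout, for viability, T/C: 100% = DMSO vehicle control wells.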

| Structure (SMILES) | IC50 (second compound 0.03 µM) [nM] | IC50 (second compound 0.0949 µM) [nM] | IC50 (second compound 0.3 µM) [nM] | IC50 (second compound 0.949 µM) [nM] | IC50 (second compound 3 µM) [nM] | viability, T/C [1] [%] | viability, T/C [2] [%] | viability, T/C [3] [%] | viability, T/C [4] [%] | viability, T/C [5] [%] | viability, T/C [6] [%] | viability, T/C [7] [%] | viability, T/C [8] [%] | viability, T/C [9] [%] | viability, T/C [11] [%] | viability, T/C [12] [%] | viability, T/C [15] [%] | viability, T/C [16] [%] | viability, T/C [19] [%] | viability, T/C [20] [%] | also measured |
| --- | --- | --- | --- | --- | --- | --- | --- | --- | --- | --- | --- | --- | --- | --- | --- | --- | --- | --- | --- | --- | --- |
| Cn1ncnc1[C@H]1c2n[nH]c(=O)c3cc(F)cc(c23)N[C@@H]1c1ccc(F)cc1 + CCN1C(C(=O)NC23CCC(C(=O)O)(CC2)CC3)C(c2cccc(Cl)c2F)C2(C(=O)Nc3cc(Cl)ccc32)C12CCCCC2 | > 100 | > 100 | > 100 | 2.14 | < 0.316 | 107 | 91.3 | 80.9 | 87.2 | 87.6 | 77.5 | 76.5 | 65.8 | 65.9 | 63.1 | 59.3 | 42 | 41.4 | 22.9 | 25.8 | viability, T/C (second compound 0.03 µM, first compound 0.000316 µM): 130%; viability, T/C (second compound 0.03 µM, first compound 0.001 µM): 116%; viability, T/C (second compound 0.0949 µM, first compound 0.000316 µM): 98.3%; viability, T/C (second compound 0.0949 µM, first compound 0.001 µM): 82.1%; viability, T/C (second compound 0.3 µM, first compound 0.000316 µM): 75%; viability, T/C (second compound 0.3 µM, first compound 0.001 µM): 69%; viability, T/C [10]: 63.6%; viability, T/C (second compound 0.949 µM, first compound 0.000316 µM): 52.4%; viability, T/C (second compound 0.949 µM, first compound 0.001 µM): 56.5%; viability, T/C [13]: 49.4%; viability, T/C [14]: 43%; viability, T/C (second compound 3 µM, first compound 0.000316 µM): 30.1%; viability, T/C (second compound 3 µM, first compound 0.001 µM): 32.3%; viability, T/C [17]: 31.9%; viability, T/C [18]: 26% |
| O=C(c1cc(Cc2n[nH]c(=O)c3ccccc23)ccc1F)N1CCN(C(=O)C2CC2)CC1 + CCN1C(C(=O)NC23CCC(C(=O)O)(CC2)CC3)C(c2cccc(Cl)c2F)C2(C(=O)Nc3cc(Cl)ccc32)C12CCCCC2 | > 10000 | > 10000 | > 10000 | 596 | < 31.6 |  |  | 120 | 135 |  |  | 90 | 95.1 |  | 77.8 | 90.8 | 54.3 | 51.7 | 31.8 | 33.5 | viability, T/C [21]: 102%; viability, T/C [22]: 99%; viability, T/C (second compound 0.03 µM, first compound 3.16 µM): 94.2%; viability, T/C (second compound 0.03 µM, first compound 10 µM): 82.4%; viability, T/C [23]: 93.9%; viability, T/C [24]: 85.6%; viability, T/C (second compound 0.0949 µM, first compound 3.16 µM): 91.6%; viability, T/C (second compound 0.0949 µM, first compound 10 µM): 79.4%; viability, T/C [25]: 72.1%; viability, T/C [26]: 67.2%; viability, T/C (second compound 0.3 µM, first compound 3.16 µM): 62.1%; viability, T/C (second compound 0.3 µM, first compound 10 µM): 60.8%; viability, T/C [27]: 54.6%; viability, T/C [28]: 45.7%; viability, T/C (second compound 0.949 µM, first compound 3.16 µM): 47%; viability, T/C (second compound 0.949 µM, first compound 10 µM): 40.9%; viability, T/C [29]: 29.9%; viability, T/C [30]: 32.4%; viability, T/C (second compound 3 µM, first compound 3.16 µM): 30.2%; viability, T/C (second compound 3 µM, first compound 10 µM): 26.5% |
| O=C(c1ccc(F)c(F)c1Nc1ccc(I)cc1F)N1CC(O)([C@@H]2CCCCN2)C1 + CCN1C(C(=O)NC23CCC(C(=O)O)(CC2)CC3)C(c2cccc(Cl)c2F)C2(C(=O)Nc3cc(Cl)ccc32)C12CCCCC2 | 72.8 | 54.1 | 14.1 | 4.49 | < 3.16 | 119 | 105 | 96.8 | 32.2 | 90 | 96 | 75.8 | 20 | 66.6 | 22.6 | 5.9 | 19 | 5.17 | 11.9 | 4.93 | viability, T/C [21]: 6.54%; viability, T/C [22]: 3.48%; viability, T/C [23]: 3.92%; viability, T/C [24]: 1.51%; viability, T/C [10]: 61.9%; viability, T/C [25]: 1.93%; viability, T/C [26]: 1.43%; viability, T/C [13]: 52.2%; viability, T/C [14]: 45%; viability, T/C [27]: 4.44%; viability, T/C [28]: 2.55%; viability, T/C [17]: 31.5%; viability, T/C [18]: 26.7%; viability, T/C [29]: 3.83%; viability, T/C [30]: 3.31% |
